Assay results published in patent US20100069380A1 (published 2010).

melting point: > 300 °C
Compound: Nc1ccc(Sc2c(O)c3c(=O)n(-c4ccccc4)c4ccccc4c3oc2=O)cc1
